US20220401418A1, “TREATMENT OF MALARIA USING HISTONE DEACETYLASE (HDAC) INHIBITORS” (FOUNDATION FOR NEGLECTED DISEASE RESEARCH, priority 2019, published 2022)
Like-named read-outs stand apart in the source and are kept apart here.

How the values were obtained:
[1] = system: Hu HDAC (HeLa nuclear extract); test: HDAC activity screening, fluorescence assay with HeLa nuclear extract; type: biochemical, human; conditions: HeLa nuclear extract as enzyme source
Protocol: HDAC inhibition screening was performed using a fluorescence-based assay with a fluorescent substrate (BocLys (Ac)-AMC Substrate). HeLa nuclear extract was used as the enzyme source.
The assay was performed in 96-well black microplates, and the total volume of the assay was set at 100 μl. […] The enzyme mixture was prepared by adding […] of the diluted enzyme (HeLa nuclear extract) to […] of HDAC buffer. From the enzyme mixture, 40 μl was taken and mixed with 10 μl of test compound (final concentration from 0.01 to 10 μM) or vehicle (control). The final mixture (50 μl) was added to each well which was then pre-incubated at 37° C. for 10 min. The HDAC reaction was started by adding 50 μl of HDAC substrate: Boc-Lys (Ac)-AMC (Anaspec, Inc Fremont, Calif., USA). […] The release of AMC was monitored by measuring the fluorescence at an excitation wavelength of 360 nm and an emission wavelength of 460 nm. Buffer and substrate alone served as blank.

Pf-HDAC1 = target: T1, Pf-HDAC1 (Plasmodium falciparum, UniProt Q7K6A1); test: PfHDAC1 fluorescent activity assay; type: biochemical
T1 construct: His-tag; FLAG-tag; purchased BPS Bioscience
T1 sequence (Q7K6A1 1-449): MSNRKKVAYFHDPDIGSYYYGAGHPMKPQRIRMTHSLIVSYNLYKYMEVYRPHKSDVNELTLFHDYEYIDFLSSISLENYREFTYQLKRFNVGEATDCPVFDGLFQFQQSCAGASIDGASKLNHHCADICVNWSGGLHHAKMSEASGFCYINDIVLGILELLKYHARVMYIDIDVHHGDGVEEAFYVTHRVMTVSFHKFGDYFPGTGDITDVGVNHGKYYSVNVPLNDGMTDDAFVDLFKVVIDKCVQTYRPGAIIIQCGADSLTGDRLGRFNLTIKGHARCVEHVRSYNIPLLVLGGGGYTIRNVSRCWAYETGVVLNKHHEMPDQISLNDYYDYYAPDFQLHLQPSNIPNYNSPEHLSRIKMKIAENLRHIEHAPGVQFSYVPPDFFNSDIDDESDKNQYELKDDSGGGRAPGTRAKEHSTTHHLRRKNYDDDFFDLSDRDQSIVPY
Protocol: The fluorescence developed was measured with excitation at 350-380 nm and emission at 440-460 nm.

[2] = system: Plasmodium falciparum 3D7; test: Plasmodium falciparum asexual blood-stage (ABS) assay; type: cell-based
Protocol: Plasmodium falciparum 3[…]. falciparum asexual blood-stage (ABS) assay, for which the cells were resuscitated from the stabilate and maintained at 5% haematocrit. Red blood cells obtained from the hospital were used to maintain the culture at 1% parasitaemia while screening. Plasmodium falciparum: 3D7 cells were used as a target strain for the assay. Mefloquine (Sigma-Aldrich) was used as a standard inhibitor. At day 1, […] of 10 mM mefloquine was added to columns 12 and 24 of the sterile 384-well black, clear-bottom, cell culture assay plates followed by compound curves which were added using Echo. The P. falciparum 3D7 cells were counted and 20 ml of culture was prepared at 5% haematocrit, 0.3% parasitaemia (as one batch, i.e., 12 plates, prepare 260 ml, to allow for WellMate prime volume) for each plate. From this, 50 μl of culture was added to all wells on all plates using WellMate with small bore tubing on full (S-1) speed. […] The plates were read on Victor plate reader using '384sybrgreen' protocol (excitation 485 nm, emission 528 nm) after which the plate contents were aspirated into 5% Virkon, and disposed of after autoclaving. Percentage inhibition for each test compound was calculated using the following equation: % Inhibition=100-(TEST COMPOUND-BLANK)/(NO INHIBITION-BLANK)*100)

Plasma Protein = test: Plasma protein binding, human; type: in vitro ADME; conditions: summary statement on Table 3, across species
Text: (§1) Method Reference for Table 3: Chung T D Y et al. In Vitro and In Vivo Assessment of ADME and PK Properties during lead selection and lead optimisation-guidelines, benchmarks and rules of thumb. In: Assay Guidance Manual. 2015.

[3] = type: in vitro ADME; conditions: mouse, microsomes, 2 h, 10 μM
Text: as §1

[4] = Microsomal stability, RLM; type: in vitro ADME; conditions: Test Conc. 10 μM
Text: as §1

[5] = Microsomal stability, HLM; type: in vitro ADME
Text: as §1

Plasma stability, mouse = type: in vitro ADME
Text: as §1

Plasma stability, rat = type: in vitro ADME
Text: as §1

Plasma stability, dog = type: in vitro ADME
Text: as §1

Plasma stability, human = type: in vitro ADME
Text: as §1

CYP 1A2 = target: T2, CYP 1A2 (Homo sapiens, UniProt P05177); test: Cyp inhibition CYP 1A2; type: in vitro ADME; conditions: summary statement on Table 3, all CYP isoforms tested
T2 sequence (P05177 1-516): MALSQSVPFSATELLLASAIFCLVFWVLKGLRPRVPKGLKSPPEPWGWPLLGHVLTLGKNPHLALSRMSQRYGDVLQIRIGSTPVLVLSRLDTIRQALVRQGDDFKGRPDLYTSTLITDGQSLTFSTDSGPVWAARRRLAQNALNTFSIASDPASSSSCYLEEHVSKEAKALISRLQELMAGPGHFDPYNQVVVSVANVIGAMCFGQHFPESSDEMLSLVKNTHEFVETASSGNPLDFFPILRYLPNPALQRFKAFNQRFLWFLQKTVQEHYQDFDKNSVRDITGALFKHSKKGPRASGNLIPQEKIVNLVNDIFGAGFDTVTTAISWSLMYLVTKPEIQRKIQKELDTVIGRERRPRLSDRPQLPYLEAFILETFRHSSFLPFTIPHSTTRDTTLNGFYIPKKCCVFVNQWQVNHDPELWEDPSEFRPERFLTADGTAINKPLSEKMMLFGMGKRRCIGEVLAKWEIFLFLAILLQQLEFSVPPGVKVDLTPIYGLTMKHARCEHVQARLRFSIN
Text: as §1

CYP 2D6 = CYP 2D6 (Homo sapiens, UniProt P10635); test: Cyp inhibition CYP 2D6; type: in vitro ADME
CYP 2D6, sequence (P10635 whole entry, species assumed): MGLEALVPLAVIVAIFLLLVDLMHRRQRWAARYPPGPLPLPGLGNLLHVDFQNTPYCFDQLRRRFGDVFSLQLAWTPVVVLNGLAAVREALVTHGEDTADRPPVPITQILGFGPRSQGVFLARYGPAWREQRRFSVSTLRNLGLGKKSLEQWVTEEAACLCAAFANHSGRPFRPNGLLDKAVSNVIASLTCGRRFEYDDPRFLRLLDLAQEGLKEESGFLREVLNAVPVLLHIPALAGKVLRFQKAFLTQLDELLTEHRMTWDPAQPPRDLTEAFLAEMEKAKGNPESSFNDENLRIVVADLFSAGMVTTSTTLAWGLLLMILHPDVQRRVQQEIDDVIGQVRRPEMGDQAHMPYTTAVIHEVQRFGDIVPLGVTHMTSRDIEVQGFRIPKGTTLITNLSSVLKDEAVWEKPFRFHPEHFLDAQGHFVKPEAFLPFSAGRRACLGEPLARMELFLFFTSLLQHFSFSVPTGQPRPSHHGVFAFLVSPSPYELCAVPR
Text: as §1

CYP 3A4 = CYP 3A4 (Homo sapiens, UniProt P08684); test: Cyp inhibition CYP 3A4; type: in vitro ADME
CYP 3A4, sequence (P08684 whole entry, species assumed): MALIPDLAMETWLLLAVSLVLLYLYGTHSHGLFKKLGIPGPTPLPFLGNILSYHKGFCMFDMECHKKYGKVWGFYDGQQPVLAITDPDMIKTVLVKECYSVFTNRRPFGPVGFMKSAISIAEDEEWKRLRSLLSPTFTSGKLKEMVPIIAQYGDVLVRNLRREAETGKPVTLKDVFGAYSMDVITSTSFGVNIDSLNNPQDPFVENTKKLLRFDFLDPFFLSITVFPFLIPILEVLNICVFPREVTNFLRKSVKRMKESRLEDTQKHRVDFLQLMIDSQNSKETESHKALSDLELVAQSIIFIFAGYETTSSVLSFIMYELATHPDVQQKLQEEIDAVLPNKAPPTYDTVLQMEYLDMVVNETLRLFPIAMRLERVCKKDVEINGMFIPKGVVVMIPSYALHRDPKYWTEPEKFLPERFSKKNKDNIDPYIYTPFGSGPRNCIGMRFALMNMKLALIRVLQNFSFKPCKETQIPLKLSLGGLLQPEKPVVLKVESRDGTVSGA
Text: as §1

HepG2 = test: Cytotoxicity HepG2; type: cell-based
Text: as §1

HERG = HERG (Homo sapiens, UniProt Q12809); test: HERG binding; conditions: summary statement on Table 3
HERG, sequence (Q12809 whole entry): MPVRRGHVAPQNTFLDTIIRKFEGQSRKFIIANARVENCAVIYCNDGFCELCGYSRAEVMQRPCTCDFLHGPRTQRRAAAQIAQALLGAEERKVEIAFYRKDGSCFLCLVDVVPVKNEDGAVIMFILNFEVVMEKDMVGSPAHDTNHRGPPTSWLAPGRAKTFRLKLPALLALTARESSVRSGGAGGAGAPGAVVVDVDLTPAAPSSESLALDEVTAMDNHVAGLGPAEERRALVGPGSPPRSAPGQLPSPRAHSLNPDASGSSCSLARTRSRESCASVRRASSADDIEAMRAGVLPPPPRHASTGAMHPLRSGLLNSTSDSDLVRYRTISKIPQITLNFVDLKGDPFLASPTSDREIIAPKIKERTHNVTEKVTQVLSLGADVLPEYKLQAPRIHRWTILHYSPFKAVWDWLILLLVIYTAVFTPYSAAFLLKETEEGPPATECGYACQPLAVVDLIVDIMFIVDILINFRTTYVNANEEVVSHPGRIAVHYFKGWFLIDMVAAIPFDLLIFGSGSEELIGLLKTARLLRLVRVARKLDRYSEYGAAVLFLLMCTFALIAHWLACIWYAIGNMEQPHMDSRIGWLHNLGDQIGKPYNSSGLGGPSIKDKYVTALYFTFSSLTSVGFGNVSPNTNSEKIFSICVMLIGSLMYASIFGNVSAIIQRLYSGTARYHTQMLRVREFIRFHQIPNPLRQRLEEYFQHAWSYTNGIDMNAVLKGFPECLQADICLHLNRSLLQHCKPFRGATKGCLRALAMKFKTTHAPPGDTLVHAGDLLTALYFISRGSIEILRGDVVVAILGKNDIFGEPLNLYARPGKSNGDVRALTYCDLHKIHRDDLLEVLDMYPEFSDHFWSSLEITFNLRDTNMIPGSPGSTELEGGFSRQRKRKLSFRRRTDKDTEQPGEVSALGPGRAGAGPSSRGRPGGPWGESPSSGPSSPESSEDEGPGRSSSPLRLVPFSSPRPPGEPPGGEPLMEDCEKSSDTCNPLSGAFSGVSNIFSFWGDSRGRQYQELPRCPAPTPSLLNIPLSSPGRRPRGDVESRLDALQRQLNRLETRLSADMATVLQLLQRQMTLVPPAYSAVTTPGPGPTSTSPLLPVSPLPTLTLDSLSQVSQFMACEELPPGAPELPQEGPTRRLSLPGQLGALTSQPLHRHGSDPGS
Text: as §1

P. falciparum = test: In vivo efficacy in humanized SCID mouse model of P. falciparum malaria; conditions: for reduction in parasitaemia: intra-peritoneal, humanized SCID mice
Text: In vivo efficacy assessed in humanized SCID mouse model of P. falciparum malaria.

Compound: O=C(NO)c1ccc(Cn2cc(-c3ccc(CN4CCCC4)cc3)nn2)cc1 [FNDR-20123, N-hydroxy-4-((4-(4-(pyrrolidin-1-ylmethyl)phenyl)-1H-1,2,3-triazol-1-yl)methyl)benzamide]
- IC50 [1]: ~0.003 µM
- IC50 ([1]; listed as 20123): 0.003 µM
- IC50 (Pf-HDAC1): 0.031 µM
- IC50 ([2]; Plasmodium falciparum, P. falciparum 3D7, 72 h, read-out: Anti-Malarial Activity Asexual Blood Stage IC50): 0.041 µM
- anti-malarial activity in library screen ([2]; screen of proprietary compound library): potent anti-malarial activity
- plasma protein binding (Plasma Protein): low
- Microsomal Stability (% remaining at 120 min) [3]: 76.15%
- Microsomal Stability (% remaining at 120 min) [4]: 74.56%
- Microsomal Stability (% remaining at 120 min) ([5]; HLM, Test Conc. 10 μM, 120 min): 85.31%
- liver microsomal stability ([5]; summary statement on Table 3, all microsome species): good
- Plasma Stability (% remaining at 240 min) (Plasma stability, mouse): 89.16%
- Plasma Stability (% remaining at 240 min) (Plasma stability, rat): 88.90%
- Plasma Stability (% remaining at 240 min) (Plasma stability, dog): 97.72%
- Plasma Stability (% remaining at 240 min) (Plasma stability, human): 98.94%
- inhibition of the CYP isoforms tested (CYP 1A2): no inhibition
- IC50 (CYP 2D6): 28 µM
- IC50 (CYP 3A4): 27 µM
- Cytotoxicity HepG2 (% @ 100 μM) (HepG2): 12.6%
- hERG liability (HERG): no hERG liability
- reduction in parasitaemia (P. falciparum; 50 mg/kg): 98%
- reduction in parasitaemia (P. falciparum; 100 mg/kg): 99%
- reduction in parasitemia (P. falciparum; oral, 50 mg/kg body weight for 4 days, humanized SCID mouse): 67%
